Laboratory results as given in patent US9278940B2, “Cyclic amines as bromodomain inhibitors” (Zenith Epigenetics Corp., priority 2012, dated 2016).
Counter-ions that a name gives are not always drawn.

Tested on: Human AML MV-4-11 cells
Test: Inhibition of cell proliferation in MV4-11 cells
Type: cell-based
Set-up: key: Active: Compounds with an IC50 value less than 30 μM are deemed to be active.; Not Active: Compounds with an IC50 value less than 30 μM are deemed to be active
Details: 72 hours
Procedure, shortened: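 Exponentially growing MV-4-11 cells were treated immediately with two-fold compound dilutions from 30 µM to 0.2 µM in triplicate for 72 h at 37 °C. Viability was read by MTS (CellTiter Aqueous One) absorbance at 490 nm after 3-4 h; % proliferation vs DMSO gave IC50.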

cell proliferation activity (IC50 < 30 μM): Active
Structure (SMILES): COc1cc(OC)c2c(=O)[nH]c(-c3cccc(N4CCN(C(C)C)CC4)n3)nc2c1 [Example 17, 2-(6-(4-Isopropylpiperazin-1-yl)pyridin-2-yl)-5,7-dimethoxyquinazolin-4(3H)-one Hydrochloride]
